Laboratory results: patent US5026698A, “Thienopyridine type mevalonolactones” (Nissan Chemical Industries, Ltd., priority 1988, dated 1991)

What was measured:
cholesterol biosynthesis [1] = assay: Test A: Inhibition of cholesterol biosynthesis from acetate in vitro (rat liver microsome and sup fraction, [2-14C]sodium acetate); format: biochemical, male Wistar rat; conditions: for Relative activities by Test A: based on the activity of CS-514 by Test A being evaluated to be 1
Method: Enzyme solution was prepared from liver of male Wistar rat billialy connulated and discharged bile for over 24 hours. Liver was cut out at mid-dark and microsome and supernatant fraction which was precipitable with 40-80% of solution of ammonium sulfate (sup fraction) were prepared from liver homogenate according to the modified method of Knauss et. al.; Kuroda, M., et. al., Biochim. Biophys. Acta, 489, 119 (1977). For assay of cholesterol biosynthesis, microsome (0.1 mg protein) and sup fraction (1.0 mg protein) were incubated for 2 hours at 37° C. in 200 μl of the reaction mixture containing ATP; 1 mM, Glutathione; 6 mM, Glucose-1-phosphate; 10 mM, AND; 0.25 mM, NADP; 0.25 mM, CoA; 0.04 mM and 0.2 mM [2-^14 C]sodium acetate (0.2 μCi) with 4 μl of test compound solution dissolved in water or dimethyl sulfoxide. To stop reaction and saponify, 1 ml of 15% EtOH-KOH was added to the reactions and heated at 75° C. for 1 hour. Nonsaponifiable lipids were extracted with petroleum ether and incorporated ^14 C radioactivity was counted. Inhibitory activity of compounds was indicated with IC50.
With respect to the compounds of the present invention, the inhibitory activities against the cholesterol biosynthesis in which HMG-CoA reductase serves as a rate limiting enzyme, were measured by the above Test A and B. The results are shown in Tables 2, 3-1 and 3-2.
The relative activities of the compounds of the present invention based on the activities of CS-514 by Test A being evaluated to be 1, are shown in Table 2.

[2] = system: cholesterol biosynthesis in Hep G2 cells; assay: Test B-1: Inhibition of cholesterol biosynthesis in culture cells (Hep G2, [2-14C]sodium acetate added at 0 hr); format: cell-based; conditions: for Relative activities by Test B-1: based on the activity of CS-514 by Test B-1 being evaluated to be 1; for inhibition at 1 µM: 1.0 × 10^-6 mol/l, read-out: Inhibitory activities at a concentration of 1.0 × 10^-6 mol/l by Test B-1 (Relative activities)
Method: Hep G2 cells at over 5th passage were seeded to 12 well plates and incubated with Dulbecco's modified Eagle (DME) medium containing 10% of fetal bovine serum (FBS) at 37° C., 5% CO2 until cells -were confluent for about 7 days. Cells were exposed to the DME medium containing 5% of lipoprotein deficient serum (LpDS) prepared by ultracentrifugation method for over 24 hours. Medium was changed to 0.5 ml of fresh 5% LpDS containing DME before assay and 10 μl of test compound solution dissolved in water or DMSO were added. 0.2 μCi of [2-^14 C]sodium acetate (20 μl) was added at 0 hr(B 1) or 4 hrs(B 2) after addition of compounds. After 4 hrs further incubation with [2-^14 C]sodium acetate, medium was removed and cells were washed with phosphate buffered saline (PBS) chilled at 4° C. Cells were scraped with rubber policeman and collected to tubes with PBS and digested with 0.2 ml of 0.5N KOH at 37° C. Aliquot of digestion was used for protein analysis and remaining was saponified with 1 ml of 15% EtOH-KOH at 75° C. for 1 hour. Nonsaponifiable lipids were extracted with petroleum ether and ^14 C radioactivity was counted. Counts were revised by cell protein and indicated with DPM/mg protein. Inhibitory activity of compounds was indicated with IC50. With respect to the compounds of the present invention, the inhibitory activities against the cholesterol biosynthesis in which HMG-CoA reductase serves as a rate limiting enzyme, were measured by the above Test A and B.

Test D: Acute toxicity = conditions: mouse, in vivo, 1000 mg/kg; oral, 1,000 mg/kg, 0.5% CMC suspension, ICR male mice (group of three); read-out: mortality after seven days
Method: A 0.5% CMC suspension of a test compound was orally administered to ICR male mice (group of three mice). The acute toxicity was determined based on the mortality after seven darys. With compound I-5-1, I-5-2, I-5-8, I-5-9 and I-5-10 of the present ivnention, the mortality was 0% even when they were orally administered in an amount of 1,000 mg/kg, respectively.

cholesterol biosynthesis [3] = assay: Test C: Inhibition of cholesterol biosynthesis in vivo; set-up: species or system Male Sprague-Dawley rats; conditions: oral, 0.2 mg/kg, rats; DPM/2 ml serum/2 hours
Method: Male Sprague-Dawley rats weighing about 150 g were fed normal Purina chow diet and water ad libitum, and exposed to 12 hours light/12 hours dark lighting pattern (2:00 PM-2:00 AM dark) prior to use for in vivo inhibition test of cholesterol biosynthesis. Animals were separated groups consisting of five rats as to be average mean body weight in each groups. Test compounds at dosage of 0.02-0.2 mg/kg body weight (0.4 ml/100 g body weight), were dissolved in water or suspended in 0 5% methyl cellulose and orally administered at 2-3 hours before mid-dark (8:00 PM), while cholesterol biosynthesis reaches to maximum in rats. As control, rats were orally administered only water or vehicle. At 90 minutes after sample administration, rats were injected intraperitoneally with 10 μCi of [2-^14 C]sodium acetate at volume of 0.2 ml per one. 2 Hours later, blood samples were obtained and serum were separated immediately. Total lipids were extracted according to the method of Folch et al. and saponified with EtOH-KOH. Nonsaponifiable lipids were extracted with petroleum ether and radio activity incorporated into nonsaponifiable lipids was counted.
Inhibitory activity was indicated as percent decrease of counts in testing groups (DPM/2 ml serum/2 hours) from that in control group.

[4] = Homo sapiens, HepG2, Hep G2 cells

| SMILES | Relative activities by Test A (cholesterol biosynthesis [1]) | Relative activities by Test B-1 [2] | mortality at 168 h (Test D: Acute toxicity) [%] | inhibition at 1 µM [2, 4] [%] | also measured |
| --- | --- | --- | --- | --- | --- |
| CCOC(=O)CC(O)CC(O)/C=C/c1c(C(C)C)nc2sc(C)c(CC)c2c1-c1ccc(F)cc1 (stereo not shown) [Compound I-1-1, Ethyl (E)-7-[3'-ethyl-4'-(4"-fluorophenyl)-2'-methyl-6'-(1"-methylethyl)thieno[2,3-b]pyridin-5'-yl]-3,5-dihydroxyhept-6-enoate] | 0.50 | 196 | – | – | – |
| CCc1c(C)sc2nc(C(C)C)c(/C=C/C(O)CC(O)CC(=O)O)c(-c3ccc(F)cc3)c12 (stereo not shown) [Compound I-5-1, Sodium (E)-7-[3'-ethyl-4'-(4"-fluorophenyl)-2'-methyl-6'-(1"-methylethyl)thieno[2,3-b]pyridin-5'-yl]-3,5-dihydroxyhept-6-enoate] | 0.55 | 152 | 0 | – | – |
| CCc1c(C)sc2nc(C3CC3)c(/C=C/C(O)CC(O)CC(=O)O)c(-c3ccc(F)cc3)c12 (stereo not shown) [Compound I-5-7] | 0.36 | – | – | 64.1 | – |
| CC(C)c1nc2sc3c(c2c(-c2ccc(F)cc2)c1/C=C/C(O)CC(O)CC(=O)O)CCCC3 (stereo not shown) [Compound I-5-6] | 4.1 | 152 | – | – | – |
| O=C(O)CC(O)CC(O)/C=C/c1c(C2CC2)nc2sc3c(c2c1-c1ccc(F)cc1)CCC3 (stereo not shown) [Compound I-5-9] | 2.9 | – | 0 | 62.4 | – |
| CC(C)c1nc2sc(-c3ccccc3)cc2c(-c2ccc(F)cc2)c1/C=C/C(O)CC(O)CC(=O)O (stereo not shown) [Compound I-5-3] | – | – | – | 46.8 | – |
| O=C1C[C@H](O)C[C@@H](/C=C/c2c(C3CC3)nc3sccc3c2-c2ccc(F)cc2)O1 (relative stereo) [Compound I-3-11, (E)-trans-6-[2'-(6"-cyclopropyl-4"-(4"'-fluorophenyl)-thieno[2,3-b]pyridin-5"-yl)ethenyl]-4-hydroxy-3,4,5,6-tetrahydro-2H-pyran-2-one] | – | – | – | – | percent decrease of counts relative to control group (Test C) (cholesterol biosynthesis [3]): 68% |
| CCOC(=O)CC(=O)CC(O)/C=C/c1c(C(C)C)nc2sc(C)cc2c1-c1ccc(F)cc1 (stereo not shown) [II-2] | – | 152 | – | – | – |
| CC(C)c1cc2c(-c3ccc(F)cc3)c(/C=C/C(O)CC(O)CC(=O)O)c(C(C)C)nc2s1 (stereo not shown) [Compound I-5-5] | 0.31 | 62 | – | 69.8 | – |
| CC(C)c1nc2sc3c(c2c(-c2ccc(F)cc2)c1/C=C/C(O)CC(O)CC(=O)O)CCC3 (stereo not shown) [Compound I-5-8] | 0.32 | – | 0 | 63.6 | – |
| O=C(O)CC(O)CC(O)/C=C/c1c(C2CC2)nc2sc3c(c2c1-c1ccc(F)cc1)CCCCC3 (stereo not shown) [Compound I-5-10] | 0.21 | – | 0 | 53.6 | – |
| O=C(O)CC(O)CC(O)/C=C/c1c(C2CC2)nc2sccc2c1-c1ccc(F)cc1 (stereo not shown) [Compound I-5-11] | – | 60 | – | – | percent decrease of counts relative to control group (Test C) (cholesterol biosynthesis [3]): 65% |
| Cc1sc2nc(C(C)C)c(/C=C/C(O)CC(O)CC(=O)O)c(-c3ccc(F)cc3)c2c1-c1ccccc1 (stereo not shown) [Compound I-5-4] | – | 1.4 | – | 48.2 | – |
| CC[C@H](C)C(=O)O[C@H]1C[C@H](O)C=C2C=C[C@H](C)[C@H](CC[C@@H](O)C[C@@H](O)CC(=O)O)[C@H]21 [CS-514, reference compound] | – | – | – | – | percent decrease of counts relative to control group (Test C) (cholesterol biosynthesis [3]): 34%; IC50 (cholesterol biosynthesis [1]; rat liver microsome + sup fraction, 2 hours at 37° C.): 9 nM; IC50 ([2]; Homo sapiens, HepG2, Hep G2 cells, [2-14C]sodium acetate added at 0 hr): 1370 nM |
| Cc1cc2c(-c3ccc(F)cc3)c(/C=C/C(O)CC(O)CC(=O)O)c(C(C)C)nc2s1 (stereo not shown) [Compound I-5-2] | 0.51 | 76 | 0 | – | – |
